{
  "source": "paper PMC9368227",
  "about": "“Investigation of Radiotracer Metabolic Stability In Vitro with CYP-Overexpressing Hepatoma Cell Lines” (Cells, 2022)",
  "key": {"[1]": {"assay": "Radiotracer incubation in buffer only (control, without any cell line), radio-TLC", "assay_type": "in vitro ADME", "details": "reference incubation without any cell lines", "method": "HepG2 cells were cultured in DMEM GlutaMax (Gibco, Paisley, UK) with 10% fetal calf serum (FCS) and with selective antibiotics (penicillin/streptomycin for wildtype, Zeocin (InvivoGen, San Diego, CA, USA) for CYP1A2, and Blasticidin (Gibco, Carlsbad, CA, USA) for CYP2C19 and CYP3A4 cultures). As a negative control, cultures of CHO cultivated in Ham’s F-12 medium (Gibco) with 10% FCS and 2 mM glutamine were added for the radiotracer experiments. Cells were handled under a laminar flow hood (Thermo Scientific^TM Safe 2020, Langenselbold, Germany) and were split once or twice a week by trypsinization. Cell cultures were stored horizontally in a humidified incubator (Heracell240i) at 37 °C and 5% CO2. During the time of experimental work, the utilized cell lines were regularly checked for mycoplasma. Cells were seeded in duplicates into a 96-well plate (CellStar®) with a density of 3 × 10^5 cells/well and cultured until the next day at 37 °C and 5% CO2. Cell density was determined with a cell counter (CASY® Model TT from Schärfe System, Reutlingen, Germany). Before the addition of substrates, cells were washed twice with Krebs–Henseleit buffer (KHB). The HEPES-supplemented Krebs–Henseleit buffer (pH 7.4, KHB) was freshly prepared using HEPES (5.95 g/L), D-glucose (2.0 g/L), magnesium sulfate (0.141 g/L), potassium dihydrogenphosphate (0.16 g/L), potassium chloride (0.35 g/L), sodium chloride (6.9 g/L), calcium chloride dihydrate (0.373 g/L), and sodium bicarbonate (2.1 g/L), followed by adjustment to pH 7.4 with NaOH. […]\n(§1) Incubations with radiotracer compounds were conducted, on the one hand, with radioactive ^18F-labeled compounds alone (time dependency) and, on the other hand, in the presence of 50 µM nonradioactive reference (carrier addition). For the investigation of a time-dependent metabolite formation, 2 µL aliquots were withdrawn from the supernatant, directly spotted onto the TLC plate, and analyzed as described above. […]"}, "[2]": {"system": "HepG2 CYP2C19", "assay": "Radiotracer metabolic stability, CYP2C19-overexpressing HepG2 cells", "assay_type": "in vitro ADME, human", "details": "radio-TLC", "method": "(§2) CYP-overexpressing human hepatocellular carcinoma cells (HepG2) were previously generated on the basis of subcloning human CYP1A2 [18], CYP2C19 [20], and CYP3A4 [21] cDNA into a lentiviral expression vector. The cDNA expression in the resulting vector was controlled by the human cytomegalovirus (CMV) promoter. The lentivirus expression vectors were used to produce recombinant lentivirus particles according to standard methods to infect HepG2 cells. Infected cells were selected with 3 µg/mL blasticidin for CYP2C19 and CYP3A4 and 500 µg/mL zeocin for CYP1A2 overexpression 48 h after infection. Within 3–4 weeks, antibiotic-resistant cell colonies were picked to obtain single cell-derived HepG2 clones. For more detailed information on the generation procedure of CYP-overexpressing HepG2 cells, see Steinbrecht et al..\nHepG2 cells were cultured in DMEM GlutaMax (Gibco, Paisley, UK) with 10% fetal calf serum (FCS) and with selective antibiotics (penicillin/streptomycin for wildtype, Zeocin (InvivoGen, San Diego, CA, USA) for CYP1A2, and Blasticidin (Gibco, Carlsbad, CA, USA) for CYP2C19 and CYP3A4 cultures). As a negative control, cultures of CHO cultivated in Ham’s F-12 medium (Gibco) with 10% FCS and 2 mM glutamine were added for the radiotracer experiments. Cells were handled under a laminar flow hood (Thermo Scientific^TM Safe 2020, Langenselbold, Germany) and were split once or twice a week by trypsinization. Cell cultures were stored horizontally in a humidified incubator (Heracell240i) at 37 °C and 5% CO2. During the time of experimental work, the utilized cell lines were regularly checked for mycoplasma. Cells were seeded in duplicates into a 96-well plate (CellStar®) with a density of 3 × 10^5 cells/well and cultured until the next day at 37 °C and 5% CO2. Cell density was determined with a cell counter (CASY® Model TT from Schärfe System, Reutlingen, Germany). Before the addition of substrates, cells were washed twice with Krebs–Henseleit buffer (KHB). The HEPES-supplemented Krebs–Henseleit buffer (pH 7.4, KHB) was freshly prepared using HEPES (5.95 g/L), D-glucose (2.0 g/L), magnesium sulfate (0.141 g/L), potassium dihydrogenphosphate (0.16 g/L), potassium chloride (0.35 g/L), sodium chloride (6.9 g/L), calcium chloride dihydrate (0.373 g/L), and sodium bicarbonate (2.1 g/L), followed by adjustment to pH 7.4 with NaOH. The utilized substances within this study were neither found (see Supplementary Materials, Figure S14) nor reported to be cytotoxic within the utilized concentration range and incubation duration.\nIncubations with radiotracer compounds were conducted, on the one hand, with radioactive ^18F-labeled compounds alone (time dependency) and, on the other hand, in the presence of 50 µM nonradioactive reference (carrier addition). For the investigation of a time-dependent metabolite formation, 2 µL aliquots were withdrawn from the supernatant, directly spotted onto the TLC plate, and analyzed as described above. The same procedure was performed for carrier-added samples.\nUPLC–MS analyses were performed to verify the degradation behavior of the test compounds and to gain insights into the identity of the formed metabolites. Using radiotracer incubation samples, 40 µL aliquots of the carrier-added incubations were withdrawn followed by addition of 160 µL of ACN and centrifugation (14,000 rpm (18,800–20,800× g), 4 °C, 5 min). Samples were frozen at −20 °C, and activity was allowed to decay before further mass-spectrometric analyses. Additionally, incubations with the nonradioactive references were carried out with 100 nM or 50 µM (according to the carrier-added samples) and analyzed. UPLC–MS/MS was performed using System 2 (55% isocratic elution for quantification of intact compound, or 25–75% gradient for nonradioactive metabolite analysis). The MRM mode was optimized with a solution of respective reference compounds diluted in eluent. […]"}, "[3]": {"system": "HepG2 CYP3A4", "assay": "Radiotracer metabolic stability, CYP3A4-overexpressing HepG2 cells", "assay_type": "in vitro ADME, human", "details": "HepG2 CYP3A4; radio-TLC", "method": "as §2\nHepG2 cells were cultured in DMEM GlutaMax (Gibco, Paisley, UK) with 10% fetal calf serum (FCS) and with selective antibiotics (penicillin/streptomycin for wildtype, Zeocin (InvivoGen, San Diego, CA, USA) for CYP1A2, and Blasticidin (Gibco, Carlsbad, CA, USA) for CYP2C19 and CYP3A4 cultures). As a negative control, cultures of CHO cultivated in Ham’s F-12 medium (Gibco) with 10% FCS and 2 mM glutamine were added for the radiotracer experiments. […] Cell density was determined with a cell counter (CASY® Model TT from Schärfe System, Reutlingen, Germany). […]"}, "[4]": {"system": "HepG2 CYP1A2", "assay": "Radiotracer metabolic stability, CYP1A2-overexpressing HepG2 cells", "assay_type": "in vitro ADME, human", "details": "HepG2 CYP1A2, up to 2 h; radio-TLC", "method": "as §2\nHepG2 cells were cultured in DMEM GlutaMax (Gibco, Paisley, UK) with 10% fetal calf serum (FCS) and with selective antibiotics (penicillin/streptomycin for wildtype, Zeocin (InvivoGen, San Diego, CA, USA) for CYP1A2, and Blasticidin (Gibco, Carlsbad, CA, USA) for CYP2C19 and CYP3A4 cultures). […] Cell density was determined with a cell counter (CASY® Model TT from Schärfe System, Reutlingen, Germany). […]\nas §1\nUPLC–MS analyses were performed to verify the degradation behavior of the test compounds and to gain insights into the identity of the formed metabolites. […] Additionally, incubations with the nonradioactive references were carried out with 100 nM or 50 µM (according to the carrier-added samples) and analyzed. UPLC–MS/MS was performed using System 2 (55% isocratic elution for quantification of intact compound, or 25–75% gradient for nonradioactive metabolite analysis). […]"}, "[5]": {"system": "HepG2 CYP1A2", "assay": "Competitive coincubation of [18F]1 with competitors, HepG2 CYP1A2", "details": "1 h; competitor 1 or 10 µM", "method": "(§3) Radio thin-layer chromatography (radio-TLC) was carried out on reversed-phase TLC plates (ALUGRAM RP-18W/UV254 from Macherey-Nagel, Düren, Germany) with a mobile phase of 45% ACN in water containing 0.1% trifluoroacetic acid. The samples (2 µL) were spotted onto the TLC plate. The line of origin and the front line were labeled with 1/5 of the sample activity concentration. To track the Rf value of the intact radiotracer, each TLC was spotted with the intact tracer as reference in the middle. Detection of the activity signals was achieved after 10–30 min development on radioluminographic imaging plates (FUJIFILM, Tokyo, Japan) and subsequent readout with Fuji BAS 5000® or Amersham™ Typhoon™ from GE Healthcare (Uppsala, Sweden). The resulting chromatographic profile was analyzed and integrated with the help of AIDA Image Analysis Software (version 5.1). For data depiction, the fraction of each species (intact radiotracer, metabolite, [^18F]fluoride) was plotted.\n(§4) Incubations were conducted for up to 2 h in a 96-well plate in KHB with a total incubation volume of 50 µL and an ethanol concentration of 0.4%. For the incubation with radiotracers, an activity of 100–200 kBq/well at the start of the experiment was used.\n(§5) Our last interest within this study was to test if the tracer itself could function as an indicator for the conversion of other substrates acting via inhibition of or competition with the CYP enzymes. In this regard, alternative substrates were added to the incubation mixtures with [^18F]1. The investigated substrates covered testosterone, caffeine, progesterone, compound 3, tebufelone, and RWJ63556 [44] (10 µM for all substances). Furthermore, the influence of testosterone on the metabolic turnover of [^18F]1 was investigated over a concentration range of 1–50 µM.\nFigure 7 Coincubation of [^18F]1 and different competitors with (A) HepG2 CYP1A2 and (B) HepG2 CYP2C19. […] Each competitor/inhibitor was incubated with [^18F]1 for 1 h followed by radio-TLC analysis. Activity concentrations of 94–197 kBq/well (1.9–3.9 MBq/mL) were used at start of experiment, which correspond to a concentration of 120–125 nM. Statistical analysis performed with Dunnett’s multiple comparison (post hoc test) according to the intact tracer amount (* p < 0.05; *** p < 0.001; **** p < 0.0001; n = 4)."}, "[6]": {"system": "HepG2 CYP2C19", "assay": "Competitive coincubation of [18F]1 with competitors, HepG2 CYP2C19", "details": "1 h, competitor 10 µM", "method": "as §3, §4, §5\nFigure 7 Coincubation of [^18F]1 and different competitors with (A) HepG2 CYP1A2 and (B) HepG2 CYP2C19. […] Each competitor/inhibitor was incubated with [^18F]1 for 1 h followed by radio-TLC analysis. […]"}, "[7]": {"system": "HepG2 cells", "assay": "Testosterone control incubation (conversion to androstenedione), LC-MS/MS", "details": "2.5 µM testosterone; within 2 h; 3 × 10^5 cells/well in 96-well plate", "description": "Testosterone (SIGMA-ALDRICH, Taufkirchen, Germany) was dissolved in pure ethanol. Control incubations with testosterone were carried out for 2 h with 2.5 µM testosterone, 0.05% ethanol, and a total volume of 150 µL in the cavities of a 96-well plate. The supernatant was prepared and analyzed by UPLC–MS/MS (System 2; 45% isocratic elution). Testosterone was monitored at transitions for [M + H]^+ 289.24 > 97.08 and 289.24 > 109.05 with cone voltage 52 V and collision energy 20 V, while the CYP-mediated metabolite androstenedione was monitored at transitions for [M + H]^+ 287.22 > 97.08 (collision energy 18 V) and 287.22 > 109.05 (collision energy 20 V) with a cone voltage of 50 V each."}},
  "data": [
    {"smiles": "[2H]C([2H])([18F])c1cc(-c2ccc(C)cc2)n(-c2ccc(S(C)(=O)=O)cc2)n1", "note": "[[^18F]2, 3-([D2, ^18F]fluoromethyl)-1-[4-(methylsulfonyl)phenyl]-5-(p-tolyl)-1H-pyrazole]", "values": [
      {"measurement": "Defluorination without additional enzymes in the incubation buffer (KHB)", "setting": "[1]", "result": "to a minor extent"}
    ]},
    {"smiles": "Cc1ccc(-c2cc(CC[18F])nn2-c2ccc(S(C)(=O)=O)cc2)cc1", "note": "[[^18F]3, 3-([^18F]fluoroethyl)-1-[4-(methylsulfonyl)phenyl]-5-(p-tolyl)-1H-pyrazole]", "values": [
      {"measurement": "Defluorination", "setting": "[2]; 1 h incubation", "result": "only noted during incubation with HepG2 CYP2C19"},
      {"measurement": "Metabolic turnover / stability of radiotracer (in words)", "setting": "[2]; HepG2 CYP2C19, up to 2 h", "result": "pronounced slower degradation"},
      {"measurement": "Summarized percentage of metabolites", "setting": "[3]", "result": "below 3%"},
      {"measurement": "Metabolic turnover / stability of radiotracer (in words)", "setting": "[4]", "result": "pronounced slower degradation"}
    ]},
    {"smiles": "Cn1c(=O)c2c(ncn2C)n(C)c1=O", "note": "[caffeine]", "values": [
      {"measurement": "Effect of coincubation on metabolic profile / intact [18F]1 (in words)", "setting": "[5]", "result": "no change in the metabolic profile"}
    ]},
    {"smiles": "Cc1ccc(-c2cc(CCF)nn2-c2ccc(S(C)(=O)=O)cc2)cc1", "note": "[compound 3]", "values": [
      {"measurement": "Effect of coincubation on metabolic profile / intact [18F]1 (in words)", "setting": "[5]", "result": "slightly increased the intact tracer amount"}
    ]},
    {"smiles": "CC(=O)[C@H]1CC[C@H]2[C@@H]3CCC4=CC(=O)CC[C@]4(C)[C@H]3CC[C@]12C", "note": "[progesterone]", "values": [
      {"measurement": "Increase of intact tracer [18F]1 versus incubation without additional substances", "setting": "[6]", "result": "twofold"},
      {"measurement": "Effect of coincubation on metabolic profile / intact [18F]1 (in words)", "setting": "[5]", "result": "no change in the metabolic profile"}
    ]},
    {"smiles": "C[C@]12CC[C@H]3[C@@H](CCC4=CC(=O)CC[C@@]43C)[C@@H]1CC[C@@H]2O", "note": "[testosterone]", "values": [
      {"measurement": "Testosterone consumed", "setting": "[7]", "result": "more than 50%"},
      {"measurement": "Effect of coincubation on intact [18F]1 amount (in words)", "setting": "[6]; testosterone 1–50 µM", "result": "slight increase in the amount of intact radiotracer"},
      {"measurement": "Effect of coincubation on metabolic profile / intact [18F]1 (in words)", "setting": "[5]", "result": "no change in the metabolic profile"}
    ]}
  ]
}
